Several values for one entry are separate records, joined by “and”; a condition that tells them apart may be missing. Identical values can stand only once. Inconclusive results and toxic doses are left out.
Tested on: P388 leukemia ip, CD2F1 mice, survival T/C
Assay: NCI In Vivo Anticancer Drug Screen. Data for tumor model P388 Leukemia (intraperitoneal) in CD2F1 (CDF1) mice
Settings: higher = longer survival
Outline: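 Mice carrying the transplanted tumor received test compound or vehicle. Survival was recorded in each group, and the value is the treated-group measurement divided by that of the vehicle-treated control group.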

[1] = endpoint: median survival time, dose: 60.0 mg/kg/injection, schedule: Q01DX005 (ip), vehicle: saline with Tween-80
[2] = endpoint: median survival time, dose: 120.0 mg/kg/injection, schedule: Q01DX005 (ip), vehicle: saline with Tween-80
[3] = endpoint: median survival time, dose: 240.0 mg/kg/injection, schedule: Q01DX005 (ip), vehicle: saline with Tween-80
[4] = endpoint: median survival time, dose: 100.0 mg/kg/injection, schedule: Q01DX009 (ip), vehicle: Klucel (hydroxypropylcellulose) (HPC)
[5] = endpoint: median survival time, dose: 200.0 mg/kg/injection, schedule: Q01DX009 (ip), vehicle: Klucel (hydroxypropylcellulose) (HPC)
[6] = endpoint: median survival time, dose: 50.0 mg/kg/injection, schedule: Q01DX005 (ip), vehicle: saline with Tween-80
[7] = endpoint: median survival time, dose: 100.0 mg/kg/injection, schedule: Q01DX005 (ip), vehicle: saline with Tween-80
[8] = endpoint: median survival time, dose: 200.0 mg/kg/injection, schedule: Q01DX005 (ip), vehicle: saline with Tween-80

COC1(C)C(=O)N(C)C1c1ccccc1 (configuration not stated)
T/C [1]: 100 % of control | T/C [2]: 97 % of control | T/C [3]: 100 % of control

Cc1ccc(NP(=S)(Nc2ccc(C)cc2C)Nc2ccc(C)cc2C)c(C)c1
T/C (endpoint: median survival time, dose: 60.0 mg/kg/injection, schedule: Q01DX005 (ip), vehicle: Klucel (hydroxypropylcellulose) (HPC)): 97 % of control | T/C (endpoint: median survival time, dose: 120.0 mg/kg/injection, schedule: Q01DX005 (ip), vehicle: Klucel (hydroxypropylcellulose) (HPC)): 100 % of control | T/C (endpoint: median survival time, dose: 240.0 mg/kg/injection, schedule: Q01DX005 (ip), vehicle: Klucel (hydroxypropylcellulose) (HPC)): 100 % of control

O=S(=O)(O)C1CC2NC3C4CCCC(S(=O)(=O)O)C4C(Nc4ccccc4)CC3N(c3ccccc3)C2CC1Nc1ccccc1 (configuration not stated)
T/C (endpoint: median survival time, dose: 50.0 mg/kg/injection, schedule: Q01DX009 (ip), vehicle: saline): 112 % of control | T/C (endpoint: median survival time, dose: 100.0 mg/kg/injection, schedule: Q01DX009 (ip), vehicle: saline): 116 % of control | T/C (endpoint: median survival time, dose: 200.0 mg/kg/injection, schedule: Q01DX009 (ip), vehicle: saline): 116 % of control

CN1C(Cl)=NS(=O)(=O)c2ccccc21
T/C (endpoint: median survival time, dose: 30.0 mg/kg/injection, schedule: Q01DX005 (ip), vehicle: saline with Tween-80): 120 % of control | T/C [1]: 112 % of control and 95 % of control

CC(C)Oc1ccc(C(=O)NS(=O)(=O)c2ccc(N=CC3C(=O)N(c4ccccc4)N(c4ccccc4)C3=O)cc2)cc1
T/C [4]: 92 % of control | T/C [5]: 86 % of control

CS(=O)(=O)OCCCN(CCCOS(C)(=O)=O)CCCN1CCOCC1
T/C (endpoint: mean survival time, dose: 20.0 mg/kg/injection, schedule: Q01DX009 (ip), vehicle: saline): 247 % of control | T/C (endpoint: mean survival time, dose: 40.0 mg/kg/injection, schedule: Q01DX009 (ip), vehicle: saline): 238 % of control | T/C (endpoint: mean survival time, dose: 60.0 mg/kg/injection, schedule: Q01DX009 (ip), vehicle: saline): 263 % of control | T/C (endpoint: median survival time, dose: 20.0 mg/kg/injection, schedule: Q01DX009 (ip), vehicle: saline): 227 % of control | T/C (endpoint: median survival time, dose: 40.0 mg/kg/injection, schedule: Q01DX009 (ip), vehicle: saline): 222 % of control | T/C (endpoint: median survival time, dose: 60.0 mg/kg/injection, schedule: Q01DX009 (ip), vehicle: saline): 254 % of control

COc1cccc(/C=N\NC(=O)C(=O)N/N=C\c2cccc(OC)c2O)c1O
T/C (endpoint: median survival time, dose: 50.0 mg/kg/injection, schedule: Q01DX009 (ip), vehicle: Klucel (hydroxypropylcellulose) (HPC)): 86 % of control | T/C [4]: 89 % of control | T/C [5]: 92 % of control

CC1=NN(C(=O)CC(=O)Nc2ccc(C(=O)O)cc2)C(=O)C1N=Nc1ccc(S(N)(=O)=O)cc1 (configuration not stated)
T/C [6]: 96 % of control | T/C [7]: 94 % of control | T/C [8]: 93 % of control

CCCCCCc1cc(-c2cc(CCCCCC)nc(N)n2)nc(N)n1
T/C (endpoint: median survival time, dose: 60.0 mg/kg/injection, schedule: Q01DX005 (ip), vehicle: saline): 100 % of control | T/C (endpoint: median survival time, dose: 120.0 mg/kg/injection, schedule: Q01DX005 (ip), vehicle: saline): 115 % of control

CC(=O)Nc1[nH]ncc1C#N
T/C [1]: 98 % of control | T/C [2]: 107 % of control | T/C [3]: 101 % of control

CN(C)CCC[n+]1cc2c3ccccc3c(N)cc2c2ccccc21
T/C (endpoint: median survival time, dose: 3.13 mg/kg/injection, schedule: Q04DX003 (ip), vehicle: water): 104 % of control | T/C (endpoint: median survival time, dose: 6.25 mg/kg/injection, schedule: Q04DX003 (ip), vehicle: water): 121 % of control | T/C (endpoint: median survival time, dose: 12.5 mg/kg/injection, schedule: Q04DX003 (ip), vehicle: water): 109 % of control | T/C (endpoint: median survival time, dose: 25.0 mg/kg/injection, schedule: Q04DX003 (ip), vehicle: water): 109 % of control

Cc1cc(C)c(C#N)c(SCC(=O)c2sc3c(C#N)c(C)cc(C)[n+]3c2[O-])n1
T/C [6]: 90 % of control | T/C [7]: 90 % of control | T/C [8]: 95 % of control

CC(=O)OC(C)N(C(C)=O)c1ncc([N+](=O)[O-])s1 (configuration not stated)
T/C (endpoint: median survival time, dose: 25.0 mg/kg/injection, schedule: Q01DX009 (ip), vehicle: saline with Tween-80): 100 % of control | T/C (endpoint: median survival time, dose: 50.0 mg/kg/injection, schedule: Q01DX009 (ip), vehicle: saline with Tween-80): 101 % of control | T/C (endpoint: median survival time, dose: 100.0 mg/kg/injection, schedule: Q01DX009 (ip), vehicle: saline with Tween-80): 106 % of control | T/C (endpoint: median survival time, dose: 200.0 mg/kg/injection, schedule: Q01DX009 (ip), vehicle: saline with Tween-80): 110 % of control

CC(C)c1cccc(C(C)C)c1NC(=O)OC1CCCCC1C (configuration not stated)
T/C [1]: 94 % of control | T/C [2]: 90 % of control | T/C [3]: 98 % of control

CCCCOC(=O)[C@@H]1O[C@H]2OC=C[C@H]21
T/C (endpoint: median survival time, dose: 6.25 mg/kg/injection, schedule: Q01DX005 (ip), vehicle: saline with Tween-80): 100 % of control | T/C (endpoint: median survival time, dose: 12.5 mg/kg/injection, schedule: Q01DX005 (ip), vehicle: saline with Tween-80): 106 % of control

CCCCOc1ccc(C(=O)N/N=C(\C)[C@]2(O)Cc3c(O)c4c(c(O)c3[C@@H](OC3CC(N)C(O)C(C)O3)C2)C(=O)c2c(OC)cccc2C4=O)cc1 (some centres not stated)
T/C (endpoint: median survival time, dose: 0.12 mg/kg/injection, schedule: Q01DX009 (ip), vehicle: water): 115 % of control | T/C (endpoint: median survival time, dose: 0.5 mg/kg/injection, schedule: Q01DX009 (ip), vehicle: water): 150 % of control and 151 % of control | T/C (endpoint: median survival time, dose: 1.0 mg/kg/injection, schedule: Q01DX009 (ip), vehicle: water): 152 % of control and 160 % of control | T/C (endpoint: median survival time, dose: 2.0 mg/kg/injection, schedule: Q01DX009 (ip), vehicle: water): 160 % of control and 179 % of control | T/C (endpoint: median survival time, dose: 5.0 mg/kg/injection, schedule: Q01DX001 (ip), vehicle: water): 153 % of control | T/C (endpoint: median survival time, dose: 20.0 mg/kg/injection, schedule: Q01DX001 (ip), vehicle: water): 106 % of control

— PubChem BioAssay AID330 (DTP/NCI, 2004)
